Measurements reported in patent US20090082329A1 (AVENTIS PHARMA S.A., priority 2006, published 2009).
Read-outs that look alike come from different tables or passages of the source.

Columns and labels:
MEF-IGF1R cells = experiment: Proliferation/viability of MEF-IGF1R (Thymidine [14C] incorporation); format: cell-based; details: rhIGF1 100 ng/mL, incubation 72 hours, read-out: Test C IC50
How it was run: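 Serum-starved (24 h) MEF cells stably expressing human IGF-1R were exposed to compound with rhIGF1 (100 ng/mL) and [14C]thymidine for 72 h at 37 °C. Incorporation counted by scintillation; IC50 from 10 concentrations in duplicate, normalised to IGF1-stimulated (100%) and unstimulated (0%) controls, non-linear regression.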

IGF-1R in MCF7 cells [1] = biological target: T1, IGF-1R in MCF7 cells (Homo sapiens, UniProt P08069); experiment: Autophosphorylation of IGF-1R in MCF7 cells after stimulation with IGF-1 (ELISA); format: cell-based; parameters: The autophosphorylation of IGF1R in the IGF1-induced cells is evaluated by means of an ELISA technique; endogenous in cells; host or cells: MCF-7 cells; details: MCF-7 cells, compound added one hour before stimulation with IGF1; read-out: Test B IC50
Procedure: B) Measurement of the Autophosphorylation of IGF-1R in MCF7 Cells after Stimulation with IGF-1
Cell Culturing and Execution of the Test:
The autophosphorylation of IGF1R in the IGF1-induced cells is evaluated by means of an ELISA technique (Enzyme Linked ImmunoSorbent Assay). The MCF-7 are seeded at 60 000 cells per well in 6-well plates and incubated at 37° C., 5% CO2 in medium containing 10% serum. After one night in 10% serum, the cells are deprived of serum for 24 hours. The compounds are added to the medium one hour before stimulation with IGF1. After 10 minutes of stimulation with IGF1, the cells are lysed with a buffer (Hepes 50 mM pH 7.6, Triton X100 1%, orthovanadate 2 mM, protease inhibitor cocktail). The cell lysates are incubated on a 96-well plate precoated with an anti-IGF1R antibody, followed by incubation with an anti-phosphotyrosine antibody coupled to the enzyme peroxidase. The level of peroxidase activity (measured by OD with a luminescent substrate) reflects the phosphorylation status of the receptor.
(i) The tests are performed in duplicate and the mean of the two tests is calculated.
(ii) The value of the signal of the maximum response is calculated from the positive control: cells stimulated with IGF1 without compound.
(iii) Value of the signal of the minimum response is calculated from the negative control: cells not stimulated with IGF1 without compound. […]

[2] = biological target: T2, human cytoplasmic domain of IGF-1R (Homo sapiens, UniProt P08069); experiment: Kinase IGF-1R test: inhibition of autophosphorylation of the enzyme (HTRF); format: biochemical; details: ATP 120 μM
T2 construct: The human cytoplasmic domain of IGF-1R was cloned by fusion with glutathione S-transferase (GST); made in house; host or cells: SF21 insect cells (baculovirus, pFastBac-GST)
How it was run: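 GST-fused human IGF-1R cytoplasmic domain from Sf21 cells (5 nM) preincubated with 1/3-step compound dilutions for 30 or 90 min in pH 7.5 Hepes/MnCl2 buffer, ≤1% DMSO. Autophosphorylation started with 120 μM ATP, stopped after 5 min; HTRF (anti-GST XL665/Eu-anti-phosphotyrosine) read, IC50 from inhibition vs log concentration.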

IGF-1R in MCF7 cells [3] = biological target: T1, IGF-1R in MCF7 cells; experiment: Autophosphorylation of IGF-1R in MCF7 cells after stimulation with IGF-1 (ELISA); format: cell-based; parameters: endogenous in cells; host or cells: MCF-7 cells; details: MCF-7 cells, compound added one hour before stimulation with IGF1; read-out: Test B IC50
How it was run: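 MCF-7 cells serum-starved 24 h, given compound 1 h before 10 min IGF-1 stimulation, then lysed. Phospho-IGF-1R captured by anti-IGF-1R and detected with peroxidase anti-phosphotyrosine, luminescent read-out; duplicates normalized to stimulated (100%) and unstimulated (0%) controls, IC50 by non-linear regression.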

[4] = preincubation 30 minutes with 5 nM enzyme, read-out: Test A 30′ IC50
[5] = preincubation 90 minutes with 5 nM enzyme, read-out: Test A 90′ IC50

T2 sequence (P08069 960-1367 limits assumed): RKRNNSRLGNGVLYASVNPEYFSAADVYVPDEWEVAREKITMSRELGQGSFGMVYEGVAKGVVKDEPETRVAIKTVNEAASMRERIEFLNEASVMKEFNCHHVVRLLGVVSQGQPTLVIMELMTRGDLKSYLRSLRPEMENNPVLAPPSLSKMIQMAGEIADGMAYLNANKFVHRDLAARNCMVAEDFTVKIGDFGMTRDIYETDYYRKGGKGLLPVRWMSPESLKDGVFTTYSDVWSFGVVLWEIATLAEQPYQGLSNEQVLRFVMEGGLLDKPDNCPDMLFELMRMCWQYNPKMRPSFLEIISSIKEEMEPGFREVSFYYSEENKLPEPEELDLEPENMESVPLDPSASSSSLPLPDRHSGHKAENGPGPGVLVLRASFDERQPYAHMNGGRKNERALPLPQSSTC
T1 sequence (P08069 31-1367): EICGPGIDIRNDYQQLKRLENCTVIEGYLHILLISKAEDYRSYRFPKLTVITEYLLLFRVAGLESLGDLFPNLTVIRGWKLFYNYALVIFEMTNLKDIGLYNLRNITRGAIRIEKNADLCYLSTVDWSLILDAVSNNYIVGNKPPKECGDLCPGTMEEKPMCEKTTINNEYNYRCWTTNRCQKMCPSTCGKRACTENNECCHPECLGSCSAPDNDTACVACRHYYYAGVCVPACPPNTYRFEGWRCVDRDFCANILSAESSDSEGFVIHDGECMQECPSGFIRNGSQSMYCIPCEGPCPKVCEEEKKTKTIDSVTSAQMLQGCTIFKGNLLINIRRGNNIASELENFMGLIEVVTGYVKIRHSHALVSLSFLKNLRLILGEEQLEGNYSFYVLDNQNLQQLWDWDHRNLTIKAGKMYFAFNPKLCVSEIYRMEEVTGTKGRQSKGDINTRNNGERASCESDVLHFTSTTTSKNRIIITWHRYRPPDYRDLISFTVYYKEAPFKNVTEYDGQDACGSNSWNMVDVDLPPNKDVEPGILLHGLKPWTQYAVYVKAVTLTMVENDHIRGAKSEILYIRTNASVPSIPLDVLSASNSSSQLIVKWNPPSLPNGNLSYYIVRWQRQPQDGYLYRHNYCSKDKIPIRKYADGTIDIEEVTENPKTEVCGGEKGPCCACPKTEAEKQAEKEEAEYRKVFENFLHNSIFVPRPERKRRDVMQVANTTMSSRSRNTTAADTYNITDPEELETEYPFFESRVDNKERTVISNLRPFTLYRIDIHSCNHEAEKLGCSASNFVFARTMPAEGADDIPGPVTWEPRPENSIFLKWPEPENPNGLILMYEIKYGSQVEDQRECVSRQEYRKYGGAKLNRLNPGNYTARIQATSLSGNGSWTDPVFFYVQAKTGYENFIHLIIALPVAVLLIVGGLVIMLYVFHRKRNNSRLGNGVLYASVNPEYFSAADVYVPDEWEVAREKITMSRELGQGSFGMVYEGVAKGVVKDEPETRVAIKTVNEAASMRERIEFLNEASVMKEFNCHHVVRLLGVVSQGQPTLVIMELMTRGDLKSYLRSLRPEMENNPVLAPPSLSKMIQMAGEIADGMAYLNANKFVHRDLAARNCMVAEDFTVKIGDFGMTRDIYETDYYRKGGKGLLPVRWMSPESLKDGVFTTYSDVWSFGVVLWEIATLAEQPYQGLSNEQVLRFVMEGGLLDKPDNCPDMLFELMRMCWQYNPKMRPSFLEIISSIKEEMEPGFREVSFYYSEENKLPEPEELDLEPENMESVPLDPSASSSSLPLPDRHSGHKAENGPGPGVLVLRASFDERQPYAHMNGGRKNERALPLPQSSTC

| SMILES | IC50 (IGF-1R in MCF7 cells [1]) [nM] | IC50 [2, 4] [nM] | IC50 [2, 5] [nM] | IC50 (IGF-1R in MCF7 cells [3]) [nM] | IC50 (MEF-IGF1R cells) [nM] |
| --- | --- | --- | --- | --- | --- |
| CC1(C)C(=O)N(c2ccc(SC(F)(F)F)cc2)C(=O)N1Cc1ccnc(Nc2cccnc2Cl)c1 [Example 40E, 1-({2-[(2-chloropyridin-3-yl)amino]pyridin-4-yl}-methyl)-5,5-dimethyl-3-{4-[(trifluoromethyl)thio]phenyl}imidazolidine-2,4-dione] |  | 10 to 100 | 10 to 100 | 10 to 100 | 10 to 100 |
| CC1(C)C(=O)N(c2ccc(SC(F)(F)F)cc2)C(=O)N1Cc1ccnc(Nc2ccc(Cl)nc2)c1 [Example 40F, 1-({2-[(6-chloropyridin-3-yl)amino]pyridin-4-yl}-methyl)-5,5-dimethyl-3-{4-[(trifluoromethyl)thio]phenyl}imidazolidine-2,4-dione] |  | > 100 | 10 to 100 | > 100 | > 100 |
| CC1(C)C(=O)N(c2ccc(SC(F)(F)F)cc2)C(=O)N1Cc1ccnc(Nc2ccc(O)nc2)c1 [Example 40G, 1-({2-[(6-hydroxypyridin-3-yl)amino]pyridin-4-yl}-methyl)-5,5-dimethyl-3-{4-[(trifluoromethyl)thio]phenyl}imidazolidine-2,4-dione] |  | 10 to 100 | 10 to 100 | 10 to 100 | > 100 |

Continued, in another order:

| IC50 (IGF-1R in MCF7 cells [1]) [nM] | IC50 [2, 4] [nM] | IC50 [2, 5] [nM] | IC50 (IGF-1R in MCF7 cells [3]) [nM] | SMILES | IC50 (MEF-IGF1R cells) [nM] |
| --- | --- | --- | --- | --- | --- |
| < 10 | 10 to 100 | < 10 |  | CC1(C)C(=O)N(c2ccc(SC(F)(F)F)cc2)C(=O)N1Cc1ccnc(NC(N)=O)c1 [Example 40A] | 10 to 100 |
|  | 10 to 100 | < 10 | 10 to 100 | COC(=O)Nc1cc(CN2C(=O)N(c3ccc(SC(F)(F)F)cc3)C(=O)C2(C)C)ccn1 [Example 40L, methyl {4-[(5,5-dimethyl-2,4-dioxo-3-{4-[(tri-fluoromethyl)thio]phenyl}imidazolidin-1-yl)methyl]pyridin-2-yl}carbamate] | > 100 |
